The record followed here is patent publication US20050065202A1, “Use of sulphonamide derivatives for the manufacture of a medicament for the prophylaxis and/or treatment of disorders of food ingestion” (priority 2003, published 2005).

One may read the melting point as the temperature of the solid-liquid transition. In general, Ki refers to the equilibrium dissociation constant of an inhibitor or competing ligand from its target. A word on the inhibition: it is the change of the read-out against control, counted positive when it falls.

Data set [1] addresses T1, 5HT6-human recombinant receptor (Homo sapiens, UniProt P50406).
T1 construct: purchased Receptor Biology; host or cells: HEK-293 cell membranes
Description: Binding to serotonin receptor 5HT6 ([3H]-LSD displacement, HEK-293 cell membranes). To be noted: for inhibition at 1 µM: read-out: % Inhibition 10^−6 M. The procedure:
Binding to Serotonin Receptor 5HT6
The respective part of the literature description is hereby incorporated by reference and forms part of the disclosure. […] Tests were made in triplicate.
The binding of the inventively used sulphonamide derivatives of general formula (I) was determined as described above.

Where a name gives a salt, the structure may show the parent alone.

T1 sequence (P50406 whole entry): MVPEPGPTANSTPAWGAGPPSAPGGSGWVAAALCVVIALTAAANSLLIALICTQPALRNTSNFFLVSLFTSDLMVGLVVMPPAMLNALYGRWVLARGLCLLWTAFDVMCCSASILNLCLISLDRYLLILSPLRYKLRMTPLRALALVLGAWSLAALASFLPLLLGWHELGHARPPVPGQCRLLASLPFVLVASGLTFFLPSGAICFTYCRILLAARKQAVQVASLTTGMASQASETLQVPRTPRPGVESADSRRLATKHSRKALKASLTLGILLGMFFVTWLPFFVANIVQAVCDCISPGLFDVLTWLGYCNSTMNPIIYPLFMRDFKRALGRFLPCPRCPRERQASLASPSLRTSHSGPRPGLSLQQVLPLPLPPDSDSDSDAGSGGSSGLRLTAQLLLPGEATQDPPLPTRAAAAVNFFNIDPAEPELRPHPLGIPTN

Compound `CCN(CC)CCc1c[nH]c2ccc(NS(=O)(=O)c3cccc4ccccc34)cc12` (as salt: HCl) [Example 3, Hydrochloride N-[3-(2-diethylaminoethyl)-1H-indol-5-yl]naphthalene-1-sulphonamide] gave a melting point of 255 to 257 °C.

As to `CN1CCC(c2c[nH]c3ccc(NS(=O)(=O)c4cccc5ccccc45)cc23)CC1` (as salt: HCl) [Example 13, N-[3-(1-methylpiperidin-4-yl)-1H-indol-5-yl]naphthalene-1-sulphonamide hydrochloride], the melting point is 212 °C (dec.).

Turning to `CCN(CC)CCc1c[nH]c2ccc(NS(=O)(=O)c3sc4ccc(Cl)cc4c3C)cc12` [Example 1, N-[3-(2-diethylaminoethyl)-1H-indol-5-yl]-5-chloro-3-methylbenzo[b]thiophene-2-sulphonamide], the melting point fell in the range of 170 to 173 °C. In data set [1], the Ki is 0.28 nM and the inhibition at 1 µM turned out to be 98.1 ± 4%.

For the compound `CCN(CC)CCc1c[nH]c2ccc(NS(=O)(=O)c3cccc4ccccc34)cc12` [Example 3, Hydrochloride N-[3-(2-diethylaminoethyl)-1H-indol-5-yl]naphthalene-1-sulphonamide], in data set [1], the inhibition at 1 µM stood at 96.6 ± 5.2%.

In the case of `CCN(CC)CCc1c[nH]c2ccc(NS(=O)(=O)c3cc(Cl)cc(Cl)c3)cc12` [Example 4, N-[3-(2-diethylaminoethyl)-1H-indol-5-yl]-3,5-dichlorobenzenesulphonamide], the melting point is 168 to 170 °C. Besides, the inhibition at 1 µM in data set [1] turned out to be 96.2 ± 0.6%.

Turning to `CCN(CC)CCc1c[nH]c2ccc(NS(=O)(=O)c3ccc(-c4ccccc4)cc3)cc12` [Example 5, N-[3-(2-diethylaminoethyl)-1H-indol-5-yl]-4-phenylbenzenesulphonamide], the melting point was 161 to 163 °C. The inhibition at 1 µM in data set [1] is 101.2 ± 0.1%.

Turning to `CCN(CC)CCc1c[nH]c2ccc(NS(=O)(=O)c3ccc(Cl)s3)cc12` [Example 6, N-[3-(2-diethylaminoethyl)-1H-indol-5-yl]-5-chlorothiophene-2-sulphonamide], the melting point was in the range of 180 to 181 °C. Moreover, in data set [1], the Ki came out at 8.7 nM and the inhibition at 1 µM amounted to 97.6 ± 1.8%.

Compound `Cc1c(S(=O)(=O)Nc2ccc3[nH]cc(CCN(C)C)c3c2)sc2ccc(Cl)cc12` [Example 7, N-[3-(2-dimethylaminoethyl)-1H-indol-5-yl]-5-chloro-3-methylbenzo[b]thiophene-2-sulphonamide] gave a melting point of 226 to 227 °C. In data set [1], the Ki was 0.13 nM and the inhibition at 1 µM is 103 ± 7.9%.

For `CN(C)CCc1c[nH]c2ccc(NS(=O)(=O)c3cccc4ccccc34)cc12` [Example 8, N-[3-(2-dimethylaminoethyl)-1H-indol-5-yl]naphthalene-1-sulphonamide], the melting point lay within 203 to 205 °C. Besides, in data set [1], the Ki is 0.76 nM and the inhibition at 1 µM turned out to be 94.5 ± 7%.

Regarding `CN(C)CCc1c[nH]c2ccc(NS(=O)(=O)c3c(Cl)nc4sccn34)cc12` [Example 9, N-[3-(2-dimethylamino-ethyl)-1H-indol-5-yl]-6-chloroimidazo[2,1-b]thiazol-5-sulphonamide], the inhibition at 1 µM in data set [1] was determined as 96.8 ± 3.7%.

As for `Cc1c(S(=O)(=O)Nc2ccc3[nH]cc(C4CCN(C)CC4)c3c2)sc2ccc(Cl)cc12` [Example 11, N-[3-(1-methylpiperidin-4-yl)-1H-indol-5-yl]-5-chloro-3-methylbenzo[b]thiophene-2-sulphonamide hydrochloride], in data set [1], the Ki amounted to 0.98 nM and the inhibition at 1 µM was 101%.

In the case of `CN1CCC(c2c[nH]c3ccc(NS(=O)(=O)c4cccc5ccccc45)cc23)CC1` [Example 13, N-[3-(1-methylpiperidin-4-yl)-1H-indol-5-yl]naphthalene-1-sulphonamide hydrochloride], in data set [1], the inhibition at 1 µM stood at 98.3%.

Consider `CN1CCC(c2c[nH]c3ccc(NS(=O)(=O)c4ccc(Cl)s4)cc23)CC1` [Example 14, N-[3-(1-methylpiperidin-4-yl)-1H-indol-5-yl]-5-chlorothiophene-2-sulphonamide], for which the melting point is 284 °C (dec.).

For `CN1CCC(c2c[nH]c3ccc(NS(=O)(=O)c4ccc(-c5ccccc5)cc4)cc23)CC1` [Example 15, N-[3-(1-methylpiperidin-4-yl)-1H-indol-5-yl]-4-phenylbenzenesulphonamide], the melting point was 247 to 248 °C.

For `CN1CCC(c2c[nH]c3ccc(NS(=O)(=O)c4cccc5cccnc45)cc23)CC1` [Example 16, N-[3-(1-methylpiperidin-4-yl)-1H-indol-5-yl]quinoline-8-sulphonamide], the melting point is 280 °C (dec.).

The compound `CCN(CC)CCc1c[nH]c2ccc(NS(=O)(=O)c3ccc4ccccc4c3)cc12` [Example 17, N-[3-(2-diethylaminoethyl)-1H-indol-5-yl]naphthalene-2-sulphonamide] displayed a melting point of 172 to 173 °C. In data set [1], the inhibition at 1 µM is 102%.
